Source: PubChem BioAssay AID1259407 (Chemical Carcinogenesis Research Information System (CCRIS), 2018)
The source made the active and inactive calls. No rule for the calls is given here.

System: CCRIS mutagenicity, Ames/micronucleus/aberration tests
Assay: CCRIS mutagenicity studies

Measured: mutagenic call

CCC(C)=O
inactive: Test System: AMES SALMONELLA TYPHIMURIUM, Strain/Indicator: TA97, Metabolic Activation: HAMSTER, LIVER, S-9, AROCLOR 1254 (10 OR 30%), Method: PREINCUBATION inactive; negative | Test System: AMES SALMONELLA TYPHIMURIUM, Strain/Indicator: TA97, Metabolic Activation: NONE, Method: PREINCUBATION inactive; negative | Test System: AMES SALMONELLA TYPHIMURIUM, Strain/Indicator: TA97, Metabolic Activation: RAT, LIVER, S-9, AROCLOR 1254 (10 OR 30%), Method: PREINCUBATION inactive; negative | Test System: AMES SALMONELLA TYPHIMURIUM, Strain/Indicator: TA98, Metabolic Activation: HAMSTER, LIVER, S-9, AROCLOR 1254 (10 OR 30%), Method: PREINCUBATION inactive; negative | Test System: AMES SALMONELLA TYPHIMURIUM, Strain/Indicator: TA98, Metabolic Activation: RAT, LIVER, S-9, AROCLOR 1254 (10 OR 30%), Method: PREINCUBATION inactive; negative | Test System: AMES SALMONELLA TYPHIMURIUM, Strain/Indicator: TA98, Metabolic Activation: RAT, LIVER, S-9, AROCLOR 1254, Method: PREINCUBATION inactive; negative | Test System: AMES SALMONELLA TYPHIMURIUM, Strain/Indicator: TA98, Metabolic Activation: RAT, LIVER, S-9, KC 500, Method: PREINCUBATION inactive; negative | Test System: AMES SALMONELLA TYPHIMURIUM, Strain/Indicator: TA98, Metabolic Activation: RAT, LIVER, S-9, PHENOBARBITAL AND BETA-NAPHTHOFLAVONE, Method: PREINCUBATION inactive; negative | Test System: AMES SALMONELLA TYPHIMURIUM, Strain/Indicator: TA100, Metabolic Activation: HAMSTER, LIVER, S-9, AROCLOR 1254 (10 OR 30%), Method: PREINCUBATION inactive; negative | Test System: AMES SALMONELLA TYPHIMURIUM, Strain/Indicator: TA100, Metabolic Activation: RAT, LIVER, S-9, AROCLOR 1254 (10 OR 30%), Method: PREINCUBATION inactive; negative | Test System: AMES SALMONELLA TYPHIMURIUM, Strain/Indicator: TA100, Metabolic Activation: RAT, LIVER, S-9, AROCLOR 1254, Method: PREINCUBATION inactive; negative | Test System: AMES SALMONELLA TYPHIMURIUM, Strain/Indicator: TA100, Metabolic Activation: RAT, LIVER, S-9, KC 500, Method: PREINCUBATION inactive; negative | Test System: AMES SALMONELLA TYPHIMURIUM, Strain/Indicator: TA100, Metabolic Activation: RAT, LIVER, S-9, PHENOBARBITAL AND BETA-NAPHTHOFLAVONE, Method: PREINCUBATION inactive; negative | Test System: AMES SALMONELLA TYPHIMURIUM, Strain/Indicator: TA102, Metabolic Activation: NONE, Method: PREINCUBATION inactive; negative | Test System: AMES SALMONELLA TYPHIMURIUM, Strain/Indicator: TA102, Metabolic Activation: RAT, LIVER, S-9, PHENOBARBITAL AND BETA-NAPHTHOFLAVONE, Method: PREINCUBATION inactive; negative | Test System: AMES SALMONELLA TYPHIMURIUM, Strain/Indicator: TA104, Metabolic Activation: NONE, Method: PREINCUBATION inactive; negative | Test System: AMES SALMONELLA TYPHIMURIUM, Strain/Indicator: TA104, Metabolic Activation: RAT, LIVER, S-9, PHENOBARBITAL AND BETA-NAPHTHOFLAVONE, Method: PREINCUBATION inactive; negative | Test System: AMES SALMONELLA TYPHIMURIUM, Strain/Indicator: TA1535, Metabolic Activation: HAMSTER, LIVER, S-9, AROCLOR 1254 (10 OR 30%), Method: PREINCUBATION inactive; negative | Test System: AMES SALMONELLA TYPHIMURIUM, Strain/Indicator: TA1535, Metabolic Activation: RAT, LIVER, S-9, AROCLOR 1254 (10 OR 30%), Method: PREINCUBATION inactive; negative | Test System: AMES SALMONELLA TYPHIMURIUM, Strain/Indicator: TA1535, Metabolic Activation: RAT, LIVER, S-9, AROCLOR 1254, Method: PREINCUBATION inactive; negative | Test System: AMES SALMONELLA TYPHIMURIUM, Strain/Indicator: TA1535, Metabolic Activation: RAT, LIVER, S-9, KC 500, Method: PREINCUBATION inactive; negative | Test System: AMES SALMONELLA TYPHIMURIUM, Strain/Indicator: TA1535, Metabolic Activation: RAT, LIVER, S-9, PHENOBARBITAL AND BETA-NAPHTHOFLAVONE, Method: PREINCUBATION inactive; negative | Test System: AMES SALMONELLA TYPHIMURIUM, Strain/Indicator: TA1537, Metabolic Activation: HAMSTER, LIVER, S-9, AROCLOR 1254 (30%), Method: PREINCUBATION inactive; negative | Test System: AMES SALMONELLA TYPHIMURIUM, Strain/Indicator: TA1537, Metabolic Activation: RAT, LIVER, S-9, AROCLOR 1254 (30%), Method: PREINCUBATION inactive; negative | Test System: AMES SALMONELLA TYPHIMURIUM, Strain/Indicator: TA1537, Metabolic Activation: RAT, LIVER, S-9, AROCLOR 1254, Method: PREINCUBATION inactive; negative | Test System: AMES SALMONELLA TYPHIMURIUM, Strain/Indicator: TA1537, Metabolic Activation: RAT, LIVER, S-9, KC 500, Method: PREINCUBATION inactive; negative | Test System: AMES SALMONELLA TYPHIMURIUM, Strain/Indicator: TA1537, Metabolic Activation: RAT, LIVER, S-9, PHENOBARBITAL AND BETA-NAPHTHOFLAVONE, Method: PREINCUBATION inactive; negative | Test System: AMES SALMONELLA TYPHIMURIUM, Strain/Indicator: TA1538, Metabolic Activation: NONE, Method: PREINCUBATION inactive; negative | Test System: AMES SALMONELLA TYPHIMURIUM, Strain/Indicator: TA1538, Metabolic Activation: RAT, LIVER, S-9, AROCLOR 1254, Method: PREINCUBATION inactive; negative | Test System: AMES SALMONELLA TYPHIMURIUM, Strain/Indicator: TA1538, Metabolic Activation: RAT, LIVER, S-9, KC 500, Method: PREINCUBATION inactive; negative | Test System: E. COLI, Strain/Indicator: WP2UVRA/PKM101, Metabolic Activation: NONE, Method: PREINCUBATION inactive; negative | Test System: E. COLI, Strain/Indicator: WP2UVRA/PKM101, Metabolic Activation: RAT, LIVER, S-9, PHENOBARBITAL AND BETA-NAPHTHOFLAVONE, Method: PREINCUBATION inactive; negative | Test System: E. COLI, Strain/Indicator: WP2 UVRA, Metabolic Activation: NONE, Method: PREINCUBATION inactive; negative | Test System: E. COLI, Strain/Indicator: WP2UVRA, Metabolic Activation: NONE, Method: PREINCUBATION inactive; negative | Test System: E. COLI, Strain/Indicator: WP2 UVRA, Metabolic Activation: RAT, LIVER, S-9, KC 500, Method: PREINCUBATION inactive; negative | Test System: E. COLI, Strain/Indicator: WP2UVRA, Metabolic Activation: RAT, LIVER, S-9, PHENOBARBITAL AND BETA-NAPHTHOFLAVONE, Method: PREINCUBATION inactive; negative | Test System: MOUSE LYMPHOMA, Strain/Indicator: L5178Y (TK+/TK-), Metabolic Activation: NONE, Method: SUSPENSION/PLATE inactive; negative | Test System: MOUSE LYMPHOMA, Strain/Indicator: L5178Y (TK+/TK-), Metabolic Activation: RAT, LIVER, S-9, AROCLOR 1242 AND AROCLOR 1254 (2:1), Method: SUSPENSION/PLATE inactive; negative

N#C/C(=C/C=C/c1ccccc1[N+](=O)[O-])c1ccc(Br)cc1
active: Test System: AMES SALMONELLA TYPHIMURIUM, Strain/Indicator: TA97A, Metabolic Activation: NONE, Method: STANDARD PLATE active; positive | Test System: AMES SALMONELLA TYPHIMURIUM, Strain/Indicator: TA100, Metabolic Activation: NONE, Method: STANDARD PLATE active; positive
